One assay addresses Fyn (Homo sapiens (Human), UniProt P06241). Put plainly: Z′-LYTE in vitro Fyn kinase activity assay. Format: biochemical. To be noted: ATP 50 μM; read-out: FYN KINASE INHIBITION IC50. The protocol: The Fyn kinase inhibitory activity of representative examples of compounds of Formula (1) was evaluated by Z′-LYTE™ Kinase Assay Platform (Invitrogen). Compounds were evaluated towards active Fyn (full length active, molecular weight 87.1 kDa; Invitrogen). […] Samples representing the 0% inhibition (or total enzymatic activity) were in the presence of compound diluent (1% DMSO final in Reaction Buffer 50 mMHepes, 10 mM MgCl2, 1 mM EGTA, 0.01% Brij-35, pH 7.5). The kinase reaction was carried out in a total volume of 10 μl, for 60 minutes at 25° C. The 0% Phosphorylation (i.e. no ATP) and 100% Phosphorylation Assay Controls, included in each plate, allowed to calculate the percent phosphorylation achieved in the specific reaction well. Results are expressed as percentage of inhibition and the IC50 values were calculated by non-linear curve fitting using GraphPad™ Prism software (version 6 for Windows).

Another assay has as its target VEGFR2 (Homo sapiens (Human), UniProt P35968). Put plainly: In vitro VEGFR2 kinase activity assay (Eurofins Cerep). The assay is classed as biochemical. To be noted: read-out: VEGFR2 KINASE INHIBITION IC50. The protocol: The VEGFR2 kinase inhibitory activity of representative examples of compounds of Formula (I) assays was evaluated in Eurofins Cerep (France). The concentration range of the inhibitors under investigation was from 10^−8 M up to 10^−5 M final concentration. Some compounds were re-tested in a concentration-range starting from 10^−9 M. The results are expressed as a percent of control activity (in the absence of test compound) and the IC50 values were determined by non-linear regression analysis of the inhibition/concentration curves generated with mean replicate values.

A further assay relates to NF-kB. Put plainly: Gene reporter (GR) assay, NF-kB activation after TNFα in JB6 Cl 41-5a (P+) cells. Further details: key to Gene reporter (GR) inhibition, no effect: ne: no effect. Format: cell-based, murine. Conditions: for pIC50: TNFα 2 ng/ml, non toxic concentrations, read-out: Gene reporter (GR) inhibition IC50; for inhibition at 10 µM / inhibition at 3 µM: read-out: Gene reporter (GR) inhibition % effect at max concentration. The source says:
To determine if the compounds of the invention were active also in a cellular model, a gene reporter assay was established in a cell line (JB6 Cl 41-5a (P+)) know to activate Fyn kinase via an inflammatory stimuli (TNFα). GR assay measures the activation of the nuclear transcription factor NF-kB, situated down-stream the Fyn activation pathway. Products active in this analysis has to penetrate in the cell and inhibit the activation pathway of NF-kB.
The murine epithelial cell line JB6 Cl 41-5a (P+) (ATCC® Cat. #CRL-2010) was stably transfected with the pGL4.32[luc2P/NFkB-RE/Hygro] vector (Promega). Clonal selection was achieved by limiting with 80 μg/ml Hygromycin B. The clones were tested for their response to TNFα stimulus.
JB6(P+) NFkB-RE-luc2P transfected cells were used for the analysis of NF-kB activity modulation, after TNFα stimulation, by Fyn-inhibitors.
Cells were pre-treated with the different compounds for 1 h and then stimulated with 2 ng/ml TNFα for 4 h. Each tested condition was analyzed in quadruplicate.
The luciferase analysis was performed with ONE-Glo™+ToxLuciferase Reporter and Cell Viability Assay kit (Promega).

pIC50: −log10 of the molar value. Like-named read-outs stand apart in the source and are kept apart here.

Chain of Fyn (P06241 whole entry): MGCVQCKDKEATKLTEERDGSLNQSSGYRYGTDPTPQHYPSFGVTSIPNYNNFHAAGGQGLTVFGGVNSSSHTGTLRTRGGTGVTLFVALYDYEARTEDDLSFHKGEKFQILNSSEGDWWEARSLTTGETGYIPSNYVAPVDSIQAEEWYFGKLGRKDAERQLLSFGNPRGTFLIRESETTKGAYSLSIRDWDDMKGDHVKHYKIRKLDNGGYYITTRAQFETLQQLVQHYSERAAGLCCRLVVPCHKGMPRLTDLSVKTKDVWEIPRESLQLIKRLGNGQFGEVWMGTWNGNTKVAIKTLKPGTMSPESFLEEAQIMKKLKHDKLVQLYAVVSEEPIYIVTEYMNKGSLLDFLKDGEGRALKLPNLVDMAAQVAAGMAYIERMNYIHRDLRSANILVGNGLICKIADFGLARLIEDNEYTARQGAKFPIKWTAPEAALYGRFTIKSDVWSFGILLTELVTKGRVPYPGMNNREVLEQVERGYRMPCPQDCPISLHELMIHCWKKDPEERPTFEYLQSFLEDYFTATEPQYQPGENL
Chain of VEGFR2 (P35968 20-1356): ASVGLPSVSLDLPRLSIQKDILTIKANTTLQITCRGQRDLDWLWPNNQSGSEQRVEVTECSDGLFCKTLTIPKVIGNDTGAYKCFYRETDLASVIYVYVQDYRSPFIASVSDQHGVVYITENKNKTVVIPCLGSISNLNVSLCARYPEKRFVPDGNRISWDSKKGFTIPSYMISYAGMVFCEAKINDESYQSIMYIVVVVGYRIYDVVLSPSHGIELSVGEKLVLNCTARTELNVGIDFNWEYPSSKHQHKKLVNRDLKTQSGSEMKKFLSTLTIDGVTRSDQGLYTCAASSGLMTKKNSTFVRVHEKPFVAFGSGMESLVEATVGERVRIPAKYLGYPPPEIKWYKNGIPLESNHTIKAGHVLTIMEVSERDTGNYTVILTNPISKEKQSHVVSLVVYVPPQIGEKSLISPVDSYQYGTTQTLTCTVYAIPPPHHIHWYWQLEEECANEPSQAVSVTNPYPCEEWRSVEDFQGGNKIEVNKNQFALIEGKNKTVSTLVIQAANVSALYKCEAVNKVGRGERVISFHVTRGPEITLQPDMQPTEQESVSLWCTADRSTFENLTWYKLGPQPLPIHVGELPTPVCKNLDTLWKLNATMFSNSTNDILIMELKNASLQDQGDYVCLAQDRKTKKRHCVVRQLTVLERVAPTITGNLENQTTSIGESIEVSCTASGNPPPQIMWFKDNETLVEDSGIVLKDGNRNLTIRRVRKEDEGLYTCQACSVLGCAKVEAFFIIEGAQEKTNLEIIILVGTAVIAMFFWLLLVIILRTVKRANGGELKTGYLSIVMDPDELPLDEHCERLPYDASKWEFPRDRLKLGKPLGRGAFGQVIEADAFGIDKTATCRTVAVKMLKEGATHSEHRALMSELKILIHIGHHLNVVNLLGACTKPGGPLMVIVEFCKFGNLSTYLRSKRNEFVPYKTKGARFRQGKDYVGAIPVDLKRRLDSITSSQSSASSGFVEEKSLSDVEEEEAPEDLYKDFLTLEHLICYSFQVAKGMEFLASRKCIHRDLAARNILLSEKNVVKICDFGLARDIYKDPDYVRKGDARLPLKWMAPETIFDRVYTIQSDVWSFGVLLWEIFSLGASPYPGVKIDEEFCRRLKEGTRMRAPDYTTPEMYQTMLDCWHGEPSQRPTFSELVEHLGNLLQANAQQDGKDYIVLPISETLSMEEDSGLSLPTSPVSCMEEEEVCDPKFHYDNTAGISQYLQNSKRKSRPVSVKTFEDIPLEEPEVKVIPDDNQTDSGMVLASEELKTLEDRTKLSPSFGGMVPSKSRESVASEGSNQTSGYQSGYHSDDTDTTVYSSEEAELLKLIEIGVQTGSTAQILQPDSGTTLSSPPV

Usually pIC50 stands for the negative decadic logarithm of the IC50, by convention in mol/L. Regarding `Cc1ccc(NC(=O)c2ccnc(C(C)(C)C#N)c2)cc1CCc1cc(Nc2ncccc2C)[nH]n1` [Compound 36, 2-(2-cyanopropan-2-yl)-N-(4-methyl-3-(2-(5-((3-methylpyridin-2-yl)amino)-1H-pyrazol-3-yl)ethyl)phenyl)isonicotinamide], the negative-log IC50 (pIC50) was 7.49 at Fyn; above 8.00 on VEGFR2; 6.31 in the assay on NF-kB (Mus musculus, JB6 Cl 41-5a).
Consider `Cc1ccc(NC(=O)c2cc(C(C)(C)C#N)ccn2)cc1CCc1cc(Nc2cnccn2)[nH]n1` [Compound 41, 4-(2-cyanopropan-2-yl)-N-(4-methyl-3-(2-(5-(pyrazin-2-ylamino)-1H-pyrazol-3-yl)ethyl)phenyl)picolinamide], for which the pIC50 was 8.10 on Fyn; above 8.00 at VEGFR2; 6.49 in the assay on NF-kB (Mus musculus, JB6 Cl 41-5a).
Consider `CC(C)Cc1ccc(C(=O)Nc2ccc(F)c(CCc3cc(NC(=O)c4ncccn4)[nH]n3)c2)cn1` [Compound 9, N-(3-(2-fluoro-5-(6-isobutylnicotinamido)phenethyl)-1H-pyrazol-5-yl)pyrimidine-2-carboxamide], for which the pIC50 on Fyn is 7.80; on VEGFR2, above 8.00. In addition, in the assay with NF-kB (Mus musculus, JB6 Cl 41-5a), the inhibition at 10 µM came to 47%.
Consider `O=C(Nc1ccc(F)c(CCc2cc(Nc3cc4c(cn3)CN(CCO)C4)[nH]n2)c1)c1cccc(C(F)(F)F)c1` [Compound 10, N-(4-fluoro-3-(2-(5-((2-(2-hydroxyethyl)-2,3-dihydro-1H-pyrrolo[3,4-c]pyridin-6-yl)amino)-1H-pyrazol-3-yl)ethyl)phenyl)-3-(trifluoromethyl) benzamide], for which the pIC50 at Fyn was 8.40; on VEGFR2 it was above 8.00; with NF-kB (Mus musculus, JB6 Cl 41-5a), 5.70.
As for `Cc1nc(C#N)cc(Nc2cc(CCc3cc(NC(=O)N4CCC5(CCCC5)CC4)ccc3C)n[nH]2)n1` [Compound 38, N-(3-(2-(5-((6-cyano-2-methylpyrimidin-4-yl)amino)-1H-pyrazol-3-yl)ethyl)-4-methylphenyl)-8-azaspiro [4.5] decane-8-carboxamide], the negative-log IC50 (pIC50) at Fyn is 8.70. The inhibition at 10 µM with NF-kB (Mus musculus, JB6 Cl 41-5a) is 25%.
For `CN(C)Cc1ccc(C(=O)Nc2cccc(CCc3cc(NC(=O)c4ccc(N5CCOCC5)cc4)[nH]n3)c2)cc1` [Compound 47, 4-((dimethylamino)methyl)-N-(3-(2-(5-(4-morpholinobenzamido)-1H-pyrazol-3-yl)ethyl)phenyl)benzamide], the negative logarithm of the IC50 (pIC50) at Fyn and at VEGFR2 was 8.00 each time. Further, the “Gene reporter (GR) inhibition, no effect” value in the assay with NF-kB is listed as “ne”.
Regarding `Cc1nc(CN2CCOCC2)cc(Nc2cc(CCc3cc(NC(=O)c4cccc(C(F)(F)F)c4)ccc3F)[nH]n2)n1` [Compound 26, N-(4-fluoro-3-(2-(3-((2-methyl-6-(morpholinomethyl)pyrimidin-4-yl)amino)-1H-pyrazol-5-yl)ethyl)phenyl)-3-(trifluoromethyl)benzamide], the pIC50 on Fyn is 7.92; on VEGFR2, above 8.00. For the same compound, the inhibition at 3 µM in the assay on NF-kB (Mus musculus, JB6 Cl 41-5a) was 50%.
On to `CCC1(CC)CCN(C(=O)Nc2ccc(C)c(CCc3cc(Nc4cnccn4)[nH]n3)c2)C1` [Compound 22, 3,3-diethyl-N-(4-methyl-3-(2-(5-(pyrazin-2-ylamino)-1H-pyrazol-3-yl)ethyl)phenyl)pyrrolidine-1-carboxamide], for which the pIC50 at Fyn is 8.15; with NF-kB (Mus musculus, JB6 Cl 41-5a) it was 5.94.
For `Cc1nc(Nc2cc(CCc3cc(NC(=O)c4cccc(C(F)(F)F)c4)ccc3F)n[nH]2)cc(N2CCN(CCO)CC2)n1` [Compound 30, N-(4-fluoro-3-(2-(3-((6-(4-(2-hydroxyethyl)piperazin-1-yl)-2-methylpyrimidin-4-yl)amino)-1H-pyrazol-5-yl)ethyl)phenyl)-3-(trifluoromethyl) benzamide], in the assay on NF-kB, the “Gene reporter (GR) inhibition, no effect” value was “ne”.
Regarding `Cc1ccc(NC(=O)NC2CCC(C)(C)CC2)cc1CCc1cc(NC(=O)c2ccc(OC3CN(C(C)C)C3)cc2)[nH]n1` [Compound 23, N-(3-(5-(3-(4,4-dimethylcyclohexyl)ureido)-2-methylphenethyl)-1H-pyrazol-5-yl)-4-((1-isopropylazetidin-3-yl)oxy)benzamide], the negative logarithm of the IC50 (pIC50) was 8.30 on Fyn and 5.84 with NF-kB (Mus musculus, JB6 Cl 41-5a).
Consider `Cc1ccc(NC(=O)c2ccnc(C(C)(C)C#N)c2)cc1CCc1cnc(Nc2cnccn2)s1` [Compound 50, 2-(2-cyanopropan-2-yl)-N-(4-methyl-3-(2-(2-(pyrazin-2-ylamino)thiazol-5-yl)ethyl)phenyl)isonicotinamide], for which the pIC50 at Fyn is 8.10. Besides, the inhibition at 3 µM in the assay on NF-kB (Mus musculus, JB6 Cl 41-5a) worked out at 86%.
As to `Cc1nc(Nc2cc(CCc3cc(NC(=O)c4cccc(C(F)(F)F)c4)ccc3F)[nH]n2)cc(-c2cnn(CCO)c2)n1` [Compound 42, N-(4-fluoro-3-(2-(3-((6-(1-(2-hydroxyethyl)-1H-pyrazol-4-yl)-2-methylpyrimidin-4-yl)amino)-1H-pyrazol-5-yl)ethyl)phenyl)-3-(trifluoromethyl)benzamide], the results for the pIC50 at Fyn and at VEGFR2 were 7.89 and 7.70, respectively. Also, in the assay with NF-kB (Mus musculus, JB6 Cl 41-5a), the inhibition at 10 µM turned out to be 56%.
For `Cc1nc(CN2CCCC2)cc(Nc2cc(CCc3cc(NC(=O)c4cccc(C(F)(F)F)c4)ccc3F)[nH]n2)n1` [Compound 28, N-(4-fluoro-3-(2-(3-((2-methyl-6-(pyrrolidin-1-ylmethyl)pyrimidin-4-yl)amino)-1H-pyrazol-5-yl)ethyl)phenyl)-3-(trifluoromethyl)benzamide], the pIC50 on Fyn is 7.77; on VEGFR2, above 8.00.
As to `Cc1nc(Nc2cc(CCc3cc(NC(=O)c4cccc(C(F)(F)F)c4)ccc3F)n[nH]2)cc(N2CC(O)C2)n1` [Compound 31, N-(4-fluoro-3-(2-(3-((6-(3-hydroxyazetidin-1-yl)-2-methylpyrimidin-4-yl)amino)-1H-pyrazol-5-yl)ethyl)phenyl)-3-(trifluoromethyl)benzamide], in the assay with NF-kB (Mus musculus, JB6 Cl 41-5a), the inhibition at 10 µM came out at 47%.
For the compound `Cc1nc(CN2C[C@@H](C)O[C@@H](C)C2)cc(Nc2cc(CCc3cc(NC(=O)c4cccc(C(F)(F)F)c4)ccc3F)[nH]n2)n1` [Compound 27, N-(3-(2-(3-((6-(((2S,6R)-2,6-dimethylmorpholino)methyl)-2-methylpyrimidin-4-yl)amino)-1H-pyrazol-5-yl)ethyl)-4-fluorophenyl)-3-(trifluoromethyl)benzamide], the results for the negative logarithm of the IC50 (pIC50) at Fyn and at VEGFR2 were 8.00 and 7.92, respectively.
Regarding `Cc1ccc(NC(=O)NC2CCC(C)(C)CC2)cc1CCc1cc(NC(=O)c2ccc(C3CCN(C)CC3)cc2)[nH]n1` [Compound 25, N-(3-(5-(3-(4,4-dimethylcyclohexyl)ureido)-2-methylphenethyl)-1H-pyrazol-5-yl)-4-(1-methylpiperidin-4-yl)benzamide], the values for the pIC50 at Fyn and with NF-kB were 8.52 and 5.85, respectively.
With `Cc1ccc(NC(=O)N2CCC3(CCC3)C2)cc1CCc1cc(Nc2nccnc2C)[nH]n1` [Compound 20, N-(4-methyl-3-(2-(5-((3-methylpyrazin-2-yl)amino)-1H-pyrazol-3-yl)ethyl)phenyl)-6-azaspiro[3.4]octane-6-carboxamide], the negative logarithm of the IC50 (pIC50) at Fyn was 7.74. In addition, the inhibition at 3 µM in the assay on NF-kB (Mus musculus, JB6 Cl 41-5a) is 45%.
Take `CCC1(CC)CCN(C(=O)Nc2ccc(C)c(CCc3cc(Nc4nccnc4C)[nH]n3)c2)C1` [Compound 21, 3,3-diethyl-N-(4-methyl-3-(2-(5-((3-methylpyrazin-2-yl)amino)-1H-pyrazol-3-yl)ethyl)phenyl)pyrrolidine-1-carboxamide]: on Fyn, the pIC50 is 8.30. Moreover, the inhibition at 3 µM in the assay on NF-kB (Mus musculus, JB6 Cl 41-5a) was determined as 37%.
As for `Cc1ccc(NC(=O)NC2CCCC2)cc1CCc1cc(NC(=O)c2ccc(N3CCN(C)CC3)cc2)[nH]n1` [Compound 24, N-(3-(5-(3-cyclopentylureido)-2-methylphenethyl)-1H-pyrazol-5-yl)-4-(4-methylpiperazin-1-yl)benzamide], the pIC50 was 8.70 on Fyn and 5.63 in the assay with NF-kB (Mus musculus, JB6 Cl 41-5a).

These data come from patent publication US12509446B2, “FYN and VEGFR2 kinase inhibitors” (ROTTAPHARM BIOTECH S.R.L., priority 2019, dated 2025).
